Measured values reported in patent US12391674B2, “Heterocyclic compounds for the treatment of epilepsy” (OTSUKA PHARMACEUTICAL CO., LTD., priority 2018, dated 2025).

These compounds were tested on DBA/2 mice (assay: Audiogenic seizure model). Conditions: Mus musculus, po, 1 h, read-out: Seizure suppression.
Type: in vivo
Method: The animal model used in this test is a phenotype model for partial seizure (including secondary generalized seizure) and generalized tonic-clonic seizure, and has high clinical predictability. This test was performed in accordance with the report of De Sarro et al (Br J Pharmacol. 1988 February; 93 (2): 247-56. Anticonvulsant effects of some calcium entry blockers in DBA/2 mice. De Sarro G B, Meldrum B S, Nistico G.).
In this test example, the example compounds shown in Tables 3-1 to 3-3 below were used as test compounds.
The test compounds were suspended in 5% gum arabic/distilled water (w/v), and administered by forced oral administration to male and female DBA/2 mice (Japan SLC, Inc., 3 weeks old, 8 per group) at a dose of 30 mg/kg. After one hour of the oral administration of the test compound, each mouse was placed in a transparent acrylic cylinder 30 cm high and 23 cm in diameter, and 30 seconds were allowed for habituation. Then, they were exposed to auditory stimulation (12.6 kHz, 100-110 dB) for 1 minute or until a tonic seizure occurred.
The seizure response was assessed using the following scale, 0: no seizure, 1: wild running, 2: clonic seizure, 3: tonic seizure and 4: respiratory arrest. The maximum response was recorded as the seizure severity score.
The seizure suppression rate for each compound administration group was calculated according to the following formula.
Here, a rate of seizure suppression of 90% or more was expressed as “A”, a rate of seizure suppression of 70% or more and less than 90% was expressed as “B”, and a rate of seizure suppression of 50% or more and less than 70% was expressed as “C”.

SMILES	inhibition in vivo at 30 mg/kg [%]
Fc1ccc(Oc2ncc(-c3ccc(C(F)(F)F)nn3)cn2)cc1 [Example 57]	> 90

Same assay, conditions: Mus musculus; DBA/2 mice, oral, dose 3 mg/kg, auditory stimulation 1 hour after administration; read-out: Seizure suppression

SMILES	inhibition in vivo at 3 mg/kg [%]
Cc1ccc(-c2cnc(Oc3cccc(C(F)(F)F)c3)nc2)nn1 [Example 13]	> 90

Same assay, conditions: Mus musculus; DBA/2 mice, oral, dose 5 mg/kg, auditory stimulation 1 hour after administration; read-out: Seizure suppression

SMILES	inhibition in vivo at 5 mg/kg [%]
Fc1ccc(F)c(Oc2ncc(-c3ccc4nccn4c3)cn2)c1 [Example 166]	> 90
Fc1cccc(Oc2ncc(-c3ccc4nccn4c3)cn2)c1F [Example 164]	> 90
c1ccc(Oc2ncc(-c3ccncc3)cn2)cc1 [Example 9]	> 90

Same assay, conditions: Mus musculus; DBA/2 mice, oral, dose 30 mg/kg, auditory stimulation 1 hour after administration; read-out: Seizure suppression

SMILES	inhibition in vivo at 30 mg/kg [%]
Fc1ccc(Oc2ncc(-c3ccc4ncnn4c3)cn2)cc1 [Example 146]	> 90
Cn1ccc2cc(-c3cnc(Oc4ccccc4)nc3)ccc21 [Example 260]	> 90
Fc1cccc(Oc2ncc(-c3ccnnc3)cn2)c1 [Example 32]	> 90
Fc1ccccc1Oc1ncc(-c2ccn3cc(C(F)(F)F)nc3c2)cn1 [Example 217]	> 90
O=C1CCN(c2ccc(Cc3cccc(OC(F)(F)F)c3)cc2)C(=O)N1 [Example 339]	70 to 90
Fc1ccc(Oc2ncc(-c3ccc4ccnn4c3)cn2)cc1 [Example 154]	> 90
Clc1ccc(-c2cnc(Oc3ccccc3)nc2)cn1 [Example 51]	> 90
O=c1ccn(-c2ccc(Oc3ccccc3)cc2)c(=O)[nH]1 [Example 322, 1-(4-Phenoxyphenyl)Pyrimidine-2,4 (1H,3H)-Dione]	50 to 70
O=C1Cc2cc(-c3cnc(Oc4cccc(F)c4)nc3)ccc2N1 [Example 265]	> 90
Fc1ccc(Oc2ncc(-c3ccn4cc(C(F)(F)F)nc4c3)cn2)cc1 [Example 219]	> 90
Fc1ccc(Oc2ncc(-c3ccn4cnnc4c3)cn2)cc1 [Example 213]	> 90
c1ccc(Oc2ncc(-c3ccc4ncncc4c3)cn2)cc1 [Example 255]	> 90
Nc1nccc2c(-c3cnc(Oc4ccccc4)nc3)cccc12 [Example 261]	> 90
COCc1cn2cc(-c3cnc(Oc4ccccc4F)nc3)ccc2n1 [Example 209]	> 90
Fc1ccccc1Oc1ncc(-c2ccn3nncc3c2)cn1 [Example 185]	> 90
O=c1[nH]nccc1-c1cnc(Oc2cccc(F)c2)nc1 [Example 115]	> 90
O=c1ccc(-c2cnc(Oc3cccc(Cl)c3)nc2)n[nH]1 [Example 111]	> 90
O=C1CCN(c2ccc(-c3ccccc3)cc2)C(=O)N1 [Example 327, 1-((1,1′-Biphenyl)-4-Yl)Dihydropyrimidine-2,4 (1H,3H)-Dione]	50 to 70
Fc1ccccc1Oc1ncc(-c2ccc3nccn3n2)cn1 [Example 124]	> 90
COc1nc(Oc2ccccc2)ncc1-c1ccc2c(c1)CC(=O)N2 [Example 274]	> 90
COc1nc(Oc2ccccc2)ncc1-c1cccc2c1CC(=O)N2 [Example 273]	> 90
Fc1cccc(Oc2ncc(-c3ccc4cncn4c3)cn2)c1 [Example 157]	> 90
Nc1ccc(-c2cnc(Oc3cccc(F)c3)nc2)cn1 [Example 43]	> 90
Cc1ncccc1-c1cnc(Oc2ccc(F)cc2)nc1 [Example 49]	> 90

SMILES	inhibition in vivo at 30 mg/kg [%]
Fc1ccc(Oc2ncc(-c3ccc4nccn4n3)cn2)cc1 [Example 126]	> 90
Cc1cc(Oc2ccccc2)ccc1N1CCC(=O)NC1=O [Example 324]	50 to 70
Fc1cccc(Oc2ncc(-c3ccc4nnc(C(F)(F)F)n4c3)cn2)c1 [Example 281]	> 90
Cc1ccc(-c2cnc(Oc3cccc(F)c3)nc2)nn1 [Example 21]	> 90
c1ccc(Oc2ncc(-c3ccnc4[nH]ccc34)cn2)cc1 [Example 138]	> 90
Fc1ccccc1Oc1ncc(-c2ccc3nncn3n2)cn1 [Example 290]	> 90
Fc1ccc(Oc2ncc(-c3ccn4ccnc4c3)cn2)cc1 [Example 132]	> 90
COc1cc(-c2cnc(Oc3ccccc3)nc2)ccn1 [Example 23]	> 90
Nc1cc(-c2cnc(Oc3cccc(F)c3)nc2)ccn1 [Example 78]	> 90
Fc1cccc(Oc2ncc(-c3ccc4cnc(C(F)(F)F)n4c3)cn2)c1 [Example 287]	> 90
Fc1cccc(Oc2ncc(-c3ccc4cnnn4c3)cn2)c1 [Example 175]	> 90
Fc1ccc(Oc2ncc(-c3ccn4nncc4c3)cn2)cc1 [Example 187]	> 90
c1ccc(Oc2ncc(-c3ccc4scnc4c3)cn2)cc1 [Example 241]	> 90
Cn1ccc2c(-c3cnc(Oc4ccccc4)nc3)cccc21 [Example 263]	> 90
Nc1cc(-c2cnc(Oc3ccccc3F)nc2)ccn1 [Example 80]	> 90
Nc1cc(-c2cnc(Oc3cc(F)cc(F)c3)nc2)ccn1 [Example 82]	> 90
O=C1COCCN1c1cnc(Oc2cccc(F)c2)nc1 [Example 230]	> 90
Fc1ccc(Oc2ncc(-c3ccc4nncn4n3)cn2)cc1 [Example 292]	> 90
Cc1c(-c2cnc(Oc3ccccc3F)nc2)ccc2nccn12 [Example 199]	> 90
Cn1ncc2ccc(-c3cnc(Oc4ccc(F)cc4)nc3)nc21 [Example 278]	> 90
O=C1CCC(c2cnc(Oc3cccc(C(F)(F)F)c3)nc2)=NN1 [Example 100]	> 90
Cc1cn2cc(-c3cnc(Oc4ccccc4F)nc3)ccc2n1 [Example 178]	> 90
COCc1cn2cc(-c3cnc(Oc4cccc(F)c4)nc3)ccc2n1 [Example 210]	> 90
NC1=NC2C=CC(c3cnc(Oc4ccccc4)nc3)=CC2=N1 (centres unmarked) [Example 147]	> 90

SMILES	inhibition in vivo at 30 mg/kg [%]
Cn1ccc2ccc(-c3cnc(Oc4ccccc4)nc3)nc21 [Example 215]	> 90
Fc1cccc(Oc2ncc(-c3ccc4nncn4n3)cn2)c1 [Example 291]	> 90
O=C1CCC(c2cnc(Oc3cc(F)cc(F)c3)nc2)=NN1 [Example 105]	> 90
Clc1cc2c(-c3cnc(Oc4ccccc4)nc3)cccc2cn1 [Example 268]	> 90
O=C1Nc2ccc(-c3cnc(Oc4ccccc4)nc3)cc2C1=O [Example 271]	> 90
O=C1CCC(c2cnc(Oc3c(F)cccc3F)nc2)=NN1 [Example 104]	> 90
Fc1ccccc1Oc1ncc(-c2ccc3cnnn3c2)cn1 [Example 174]	> 90
c1ccc(Oc2ncc(-c3cnc4[nH]ncc4c3)cn2)cc1 [Example 133]	> 90
c1ccc(Oc2ncc(-c3ccc4cccnc4c3)cn2)cc1 [Example 244]	> 90
Nc1ccc(-c2cnc(Oc3cc(F)ccc3F)nc2)cn1 [Example 84, 5-(2-(2,5-Difluorophenoxy)Pyrimidin-5-Yl)Pyridin-2-Amine]	> 90
OC1CCN(c2cnc(Oc3ccc(F)cc3)nc2)CC1 [Example 228]	> 90
COc1ccc(-c2cnc(Oc3cc(F)cc(F)c3)nc2)nn1 [Example 19]	> 90
Nc1ccc(-c2cnc(Oc3ccc(F)cc3)nc2)cn1 [Example 44]	> 90
c1ccc(Oc2ncc(-c3ccc4ccncc4c3)cn2)cc1 [Example 252]	> 90
Fc1ccc(Oc2ncc(-c3ccc4cncn4c3)cn2)cc1 [Example 158]	> 90
O=C1CCN(c2ccc(Oc3ccc(F)cc3)cc2)C(=O)N1 [Example 310]	50 to 70
Cc1cnc2ccc(-c3cnc(Oc4ccccc4F)nc3)cn12 [Example 191]	> 90
Nc1ccc(-c2cnc(Oc3cc(F)cc(F)c3)nc2)cn1 [Example 53]	> 90
O=C1CCc2cc(-c3cnc(Oc4ccccc4F)nc3)ccc2N1 [Example 270]	> 90
O=C1CCOCCN1c1cnc(Oc2cccc(F)c2)nc1 [Example 233]	> 90
Cc1nc2cc(-c3cnc(Oc4ccc(F)cc4)nc3)ccn2c1C [Example 207]	> 90
Fc1ccc(Oc2ncc(-c3ccc4cnc(C(F)(F)F)n4c3)cn2)cc1 [Example 288]	> 90
Cc1cn2ccc(-c3cnc(Oc4cccc(F)c4)nc3)cc2n1 [Example 183]	> 90
N#Cc1cccc(Oc2ncc(-c3ccc(=O)[nH]n3)cn2)c1 [Example 112]	> 90
